According to US20260206757A1, “METHODS OF CONTROLLING UNDESIRABLE PLANTS WITH PPO HERBICIDES AND COMBINATIONS IN HERBICIDE TOLERANT CROP PLANTS” (BASF AGRO B.V., priority 2022, published 2026):

How the values were obtained:
Abutilon theophrasti = assay: Greenhouse experiment, post emergence herbicidal activity; format: in vivo; settings: ABUTH
Procedure: (§1) For the post emergence treatment, the plants were first grown to the 2 to 4 leaf stage (GS 12/14). The plants were cultivated due to their individual requirements at 10-25° C. and 20-35° C. The plants were irrigated as required.
(§2) Here, the herbicidal compositions were suspended or emulsified in water as distribution medium and sprayed using finely distributing nozzles. 1% methylated seed oil (MSO) has been added as adjuvant to each of the solo and mixture treatments.
(§3) In the greenhouse experiments, the herbicidal activity for the individual herbicidal compositions (solo and mixture applications) was assessed 20/21 days after treatment (DAT).
(§4) The evaluation for the damage on undesired weeds caused by the chemical compositions was carried out using a scale from 0 to 100%, compared to the untreated control plants. Here, 0 means no damage and 100 means complete destruction of the plants.

Ambrosia artemisiifolia = assay: as above; format: in vivo; settings: AMBEL
Procedure: as §1, §2, §3, §4

Chenopodium album = assay: as above; format: in vivo; settings: CHEAL
Procedure: as §1, §2, §3, §4

Convolvulus arvensis = assay: as above; format: in vivo; settings: CONAR
Procedure: as §1, §2, §3, §4

Mercuralis annua [1] = assay: as above; format: in vivo; settings: MERAN
Procedure: as §1, §2, §3, §4

Papaver rhoeas = assay: as above; format: in vivo; settings: PAPRH
Procedure: as §1, §2, §3, §4

Polygonum aviculare = assay: as above; format: in vivo; settings: POLAV
Procedure: as §1, §2, §3, §4

Portulaca oleracea = assay: as above; format: in vivo; settings: POROL, BBCH 12-14, Flumioxazin 4, Bifenox 168 g ai/ha
Procedure: as §1, §2, §3, §4

Sonchus arvensis = assay: as above; format: in vivo; settings: SONAR
Procedure: as §1, §2, §3, §4

Sorghum halepense = assay: as above; format: in vivo; settings: SORHA, BBCH 12-14, Saflufenacil 4, Bifenox 168 g ai/ha
Procedure: as §1, §2, §3, §4

HELAN Pacino = assay: Greenhouse experiment, crop safety of sunflower; format: in vivo, Helianthus annuus; settings: scale 0 to 100%
Procedure: as §1, §2, §3, §4

HELAN w F(383)I = assay: Greenhouse experiment, crop safety of PPO inhibitor tolerant sunflower; format: in vivo, Helianthus annuus; settings: scale 0 to 100%
Procedure: as §1, §2, §3, §4

Hibiscus trionum = assay: Greenhouse experiment, post emergence herbicidal activity; format: in vivo; settings: HIBTR
Procedure: as §1, §2, §3, §4

Matricaria chamomilla = assay: as above; format: in vivo; settings: MATCH
Procedure: as §1, §2, §3, §4

Echinochloa crus-galli [2] = assay: as above; format: in vivo; settings: ECHCG
Procedure: as §1, §2, §3, §4

Solanum nigrum = assay: as above; format: in vivo; settings: SOLNI, BBCH 12-14, Flumioxazin 1, Fomesafen 123 g ai/ha
Procedure: as §1, §2, §3, §4

Setaria viridis = assay: as above; format: in vivo; settings: SETVI
Procedure: as §1, §2, §3, §4

Amaranthus retroflexus = assay: Field experiment, post-emergence herbicidal activity; format: in vivo; settings: AMARE, postemergence
Procedure: (§5) Trial Objective: Saflufenacil in tank mix with Pendimethalin efficacy on weeds and grasses in early post-emergence of the weeds
(§6) On field test sites, natural weed infestation was treated, pre-emergence of the weeds on bare soil or post-emergence of the weeds.
(§7) For the post emergence treatment, the weedy plants were treated between the 2-4 true leaf stage (GS12-14) and the 6 true leaf stage (GS 16). The herbicidal compositions were suspended or emulsified in water as distribution medium and sprayed with commercial flat fan nozzles using between 100 and 200 l/ha water.
as §4, with “In the following experiments, the herbicidal activity for the individual herbicidal compositions (solo and mixture applications) was assessed up to 36 days after treatment (DAT). The” for “The”, “assessments” for “evaluation”
(§8) [formula] • where X=effect in percent using herbicide (A) at an application rate a; • Y=effect in percent using herbicide (B) at an application rate b; • E=expected effect (in %) of herbicide (A)+herbicide (B) at application rates a+b.
(§9) The value E corresponds to the effect (plant damage or injury) which is to be expected if the activity of the individual compounds is additive. If the observed effect is higher than the value E calculated according to the Colby equation, a synergistic effect is present.

Echinochloa crus-galli [3] = assay: as above; format: in vivo; settings: ECHCG, postemergence
Procedure: as §5, §6, §7
as §4, with “In the following experiments, the herbicidal activity for the individual herbicidal compositions (solo and mixture applications) was assessed up to 36 days after treatment (DAT). The” for “The”, “assessments” for “evaluation”
as §8, §9

Mercuralis annua [4] = assay: as above; format: in vivo; settings: MERAN, postemergence, Saflufenacil 12.5, Pendimethalin 1365 g ai/ha
Procedure: as §5, §6, §7
as §4, with “In the following experiments, the herbicidal activity for the individual herbicidal compositions (solo and mixture applications) was assessed up to 36 days after treatment (DAT). The” for “The”, “assessments” for “evaluation”
as §8, §9

Erigeron canadensis = assay: Greenhouse experiment, post emergence herbicidal activity; format: in vivo; settings: ERICA, BBCH 12-14, Flumioxazin 1, Pyraflufen-ethyl 1.5 g ai/ha
Procedure: as §1, §2, §3, §4

Eleusine indica = assay: Field experiment, pre-emergence herbicidal activity on bare ground; format: in vivo; settings: ELEIN, preemergence, Saflufenacil 25, Sulfentrazone 210 g ai/ha
Procedure: (§10) Trial Objective: Efficacy of Saflufenacil in tank mix with Flumioxazin applied in pre-emergence of the weeds on bare ground.
(§11) Trial Objective: Efficacy of Saflufenacil in tank mix with Sulfentrazone applied in pre-emergence of the weeds on bare ground.
as §6
(§12) For the pre-emergence treatment, the active compounds, suspended or emulsified in water, were applied by means of finely distributing nozzles on bare ground.
as §4, with “In the following experiments, the herbicidal activity for the individual herbicidal compositions (solo and mixture applications) was assessed up to 36 days after treatment (DAT). The” for “The”, “assessments” for “evaluation”
as §8, §9

Urochloa texana = assay: as above; format: in vivo; settings: PANTE, preemergence, Saflufenacil 25, Sulfentrazone 210 g ai/ha
Procedure: as §10, §11, §6, §12
as §4, with “In the following experiments, the herbicidal activity for the individual herbicidal compositions (solo and mixture applications) was assessed up to 36 days after treatment (DAT). The” for “The”, “assessments” for “evaluation”
as §8, §9

[5] = BBCH 12-14, Saflufenacil 1, Bifenox 168 g ai/ha
[6] = BBCH 12-14, Saflufenacil 0.5, Bifenox 168 g ai/ha
[7] = BBCH 12-14, Flumioxazin 0.5, Bifenox 168 g ai/ha
[8] = BBCH 12-14, Saflufenacil 0.5, Clethodim 30 g ai/ha
[9] = BBCH 12-14, Flumioxazin 2, Fomesafen 123 g ai/ha
[10] = BBCH 12-14, Flumioxazin 0.5, Halauxifen 1 g ai/ha
[11] = BBCH 12-14, Flumioxazin 2, Halauxifen 1 g ai/ha
[12] = BBCH 12-14, Saflufenacil 1, Imazamox 10 g ai/ha
[13] = BBCH 12-14, Flumioxazin 0.5, Imazamox 10 g ai/ha
[14] = Saflufenacil 12.5, Pendimethalin 1064 g ai/ha
[15] = BBCH 12-14, Flumioxazin 0.5, Pyraflufen-ethyl 1.5 g ai/ha
[16] = BBCH 12-14, Flumioxazin 2, Tribenuron-methyl 6 g ai/ha

## COC(=O)c1cc(Oc2ccc(Cl)cc2Cl)ccc1[N+](=O)[O-] [Bifenox, Methyl 5-(2,4-dichlorophenoxy)-2-nitrobenzoate]
Abutilon theophrasti; BBCH 12-14, Flumioxazin 2, Bifenox 168 g ai/ha
  % Herbicidal activity: 55%
Abutilon theophrasti; [5]
  % Herbicidal activity: 80%
Ambrosia artemisiifolia; [5]
  % Herbicidal activity: 60%
Chenopodium album; BBCH 12-14, Flumioxazin 1, Bifenox 168 g ai/ha
  % Herbicidal activity: 20%
Convolvulus arvensis; [5]
  % Herbicidal activity: 75%
Mercuralis annua [1]; [6]
  % Herbicidal activity: 55%
Papaver rhoeas; [7]
  % Herbicidal activity: 10%
Papaver rhoeas; [6]
  % Herbicidal activity: 5%
Polygonum aviculare; BBCH 12-14, Flumioxazin 4, Bifenox 168 g ai/ha
  % Herbicidal activity: 20%
Portulaca oleracea
  % Herbicidal activity: 10%
Sonchus arvensis; [7]
  % Herbicidal activity: 30%
Sorghum halepense
  % Herbicidal activity: 10%
HELAN Pacino; [7]
  Observed crop damage 21 days after treatment: 15%
HELAN w F(383)I; [7]
  Observed crop damage 21 days after treatment: 5%

## CCSC(C)CC1CC(=O)C(/C(CC)=N/OC/C=C/Cl)=C(O)C1 (centres unmarked) [Clethodim]
Ambrosia artemisiifolia; BBCH 12-14, Saflufenacil 1, Clethodim 30 g ai/ha
  % Herbicidal activity: 10%
Chenopodium album; BBCH 12-14, Saflufenacil 4, Clethodim 30 g ai/ha
  % Herbicidal activity: 0%
Convolvulus arvensis; [8]
  % Herbicidal activity: 0%
Hibiscus trionum; [8]
  % Herbicidal activity: 10%
Matricaria chamomilla; [8]
  % Herbicidal activity: 0%
Polygonum aviculare; [8]
  % Herbicidal activity: 0%
Sonchus arvensis; [8]
  % Herbicidal activity: 5%

## CS(=O)(=O)NC(=O)c1cc(Oc2ccc(C(F)(F)F)cc2Cl)ccc1[N+](=O)[O-] [Fomesafen, 5-[2-Chloro-4-(trifluoromethyl)phenoxy]-N-(methanesulfonyl)-2-nitrobenzamide]
Abutilon theophrasti; BBCH 12-14, Saflufenacil 2, Fomesafen 1 g ai/ha
  % Herbicidal activity: 94%
Chenopodium album; [9]
  % Herbicidal activity: 80%
Convolvulus arvensis; BBCH 12-14, Flumioxazin 0.5, Fomesafen 123 g ai/ha
  % Herbicidal activity: 70%
Echinochloa crus-galli [2]; [9]
  % Herbicidal activity: 85%
Echinochloa crus-galli [2]; BBCH 12-14, Saflufenacil 4, Fomesafen 123 g ai/ha
  % Herbicidal activity: 95%
Matricaria chamomilla; BBCH 12-14, Flumioxazin 1, Fomesafen 123 g ai/ha
  % Herbicidal activity: 85%
Solanum nigrum
  % Herbicidal activity: 90%

## COc1c(Cl)ccc(-c2cc(N)c(Cl)c(C(=O)O)n2)c1F [Halauxifen]
Convolvulus arvensis; [10]
  % Herbicidal activity: 60%
Convolvulus arvensis; BBCH 12-14, Saflufenacil 0.5, Halauxifen 1 g ai/ha
  % Herbicidal activity: 70%
Matricaria chamomilla; [11]
  % Herbicidal activity: 5%
Matricaria chamomilla; BBCH 12-14, Saflufenacil 2, Halauxifen 1 g ai/ha
  % Herbicidal activity: 65%
Papaver rhoeas; [10]
  % Herbicidal activity: 95%
Setaria viridis; [10]
  % Herbicidal activity: 70%
Sonchus arvensis; [11]
  % Herbicidal activity: 65%
HELAN Pacino; [10]
  Observed crop damage 21 days after treatment: 5%
HELAN w F(383)I; [10]
  Observed crop damage 21 days after treatment: 15%

## COCc1cnc(C2=NC(C)(C(C)C)C(=O)N2)c(C(=O)O)c1 (centres unmarked) [Imazamox, 5-(methoxymethyl)-2-(4-methyl-5-oxo-4-propan-2-yl-1H-imidazol-2-yl)pyridine-3-carboxylic acid]
Abutilon theophrasti; BBCH 12-14, Flumioxazin 1, Imazamox 10 g ai/ha
  % Herbicidal activity: 84%
Ambrosia artemisiifolia; BBCH 12-14, Flumioxazin 4, Imazamox 10 g ai/ha
  % Herbicidal activity: 85%
Ambrosia artemisiifolia; [12]
  % Herbicidal activity: 75%
Hibiscus trionum; [13]
  % Herbicidal activity: 65%
Matricaria chamomilla; [12]
  % Herbicidal activity: 35%
Mercuralis annua [1]; [13]
  % Herbicidal activity: 30%
Setaria viridis; BBCH 12-14, Saflufenacil 0.5, Imazamox 10 g ai/ha
  % Herbicidal activity: 75%

## CCC(CC)Nc1c([N+](=O)[O-])cc(C)c(C)c1[N+](=O)[O-] [Pendimethalin]
Amaranthus retroflexus; Saflufenacil 12.5, Pendimethalin 840 g ai/ha
  % Herbicidal activity: 37%
Amaranthus retroflexus; [14]
  % Herbicidal activity: 80%
Echinochloa crus-galli [3]; [14]
  % Herbicidal activity: 80%
Echinochloa crus-galli [3]; Saflufenacil 12.5, Pendimethalin 1365 g ai/ha
  % Herbicidal activity: 36%
Echinochloa crus-galli [3]; Saflufenacil 50, Pendimethalin 1064 g ai/ha
  % Herbicidal activity: 80%
Mercuralis annua [4]
  % Herbicidal activity: 42%

## CCOC(=O)COc1cc(-c2nn(C)c(OC(F)F)c2Cl)c(F)cc1Cl [Pyraflufen-ethyl, ethyl 2-[2-chloro-5-[4-chloro-5-(difluoromethoxy)-1-methylpyrazol-3-yl]-4-fluorophenoxy]acetate]
Convolvulus arvensis; BBCH12-14, Flumioxazin 0.5, Pyraflufen-ethyl 1.5 g ai/ha
  % Herbicidal activity: 70%
Erigeron canadensis
  % Herbicidal activity: 80%
Polygonum aviculare; [15]
  % Herbicidal activity: 90%
Sonchus arvensis; [15]
  % Herbicidal activity: 98%

## Cc1nn(-c2cc(NS(C)(=O)=O)c(Cl)cc2Cl)c(=O)n1C(F)F [Sulfentrazone, N-{2,4-Dichloro-5-[4-(difluoromethyl)-3-methyl-5-oxo-4,5-dihydro-1H-1,2,4-triazol-1-yl]phenyl}methanesulfonamide]
Eleusine indica
  % Herbicidal activity: 80%
Urochloa texana
  % Herbicidal activity: 45%

## COC(=O)c1ccccc1S(=O)(=O)NC(=O)N(C)c1nc(C)nc(OC)n1 [Tribenuron-methyl, Methyl 2-[[(4-methoxy-6-methyl-1,3,5-triazin-2-yl)-methylcarbamoyl]sulfamoyl]benzoate]
Ambrosia artemisiifolia; BBCH 12-14, Saflufenacil 1, Tribenuron-methyl 6 g ai/ha
  % Herbicidal activity: 90%
Papaver rhoeas; [16]
  % Herbicidal activity: 95%
Setaria viridis; [16]
  % Herbicidal activity: 25%
